The EC50 is the concentration at which the effect is half-maximal. Read a high EC50 as a less potent agent. Broadly, the melting point is the temperature, or range, at which the solid turns liquid.

The subject of one data set is VEGF. Description: Measurement of the secretion of VEGF by Hep3B hepatocytes (ELISA). The format is cell-based. Conditions: Homo sapiens, supernatant of Hep3B cells, 18 hours under normoxia, concentration that produces 50% of the maximum response of this same compound. Here is the method:
(§1) The test is an ELISA test for measuring VEGF and EPO in the supernatant of Hep3B cells treated under hypoxia or with deferoxamine as controls or with the potential HIF activators. The test was adapted to a 96-well plate, allowing greater compound screening capacity.
(§2) 2.3.1 Experiment Plan • 1) Inoculation of the cells on D0 • 2) Adherence for 6 hours under normoxia • 3) Preparation and addition of the products (Biomek 2000 and FX) • 4) Incubation under normoxia for 18 hours • 5) EPO and VEGF assay in the supernatant on D+1
(§3) The cells are subcultured into 100 μl of culture medium (10% FCS) in black, opaque-bottomed 96-well plates (reference Costar 3916) at 30000 cells/well, with Multidrop.
(§4) The test products are prepared at 10^−2M in 100% DMSO and then diluted to […] in medium containing 0.1% FCS (6 μl in 194 μl of MEM). 200 μl of each compound are deposited in column 12 of a 96-well plate. Dilution ranges from 3×10^−4M to 3×10^−8M are prepared with Biomek 2000 (programme: range of 9 points in series). 100 μl of MEM 0.1% FCS and Deferoxamine 5×10^−3M are added as controls to column 3 and, respectively, to wells A,B,C,D & wells E,F,G,H
(§5) The medium of the cells inoculated the day before into 96-well plates is changed for 90 μl of medium containing 0.1% FCS and 10 μl are distributed with FX 96 from the 96-well DL plates to the cell plates.
(§6) The cell plates thus treated are placed for 18 hours in an incubator at 37° C. (ambient O2, 6% CO2).
(§7) The supernatants (80 μl) of the Hep3B cells in the 96-well plates treated with the potential HIF activators are recovered with a multichannel pipette for simultaneous assay of the VEGF and the EPO by ELISA according to the supplier's instructions (Kit EPO Mesoscale (ref K15122B-2)).
(§8) The activating activity of a compound with respect to HIF is given by the concentration that produces 50% of the maximum response of this same compound in Table IV.

Another data set concerns EPO. Description: Measurement of the secretion of EPO by Hep3B hepatocytes (ELISA). It counts as cell-based. Conditions: Homo sapiens, supernatant of Hep3B cells, 18 hours under normoxia, concentration that produces 50% of the maximum response of this same compound. The protocol: as §1, §2, §3, §4, §5, §6, §7, §8
Another data set deals with HIF1-alpha. As to the kind of experiment: Measurement of the stabilization of HIF1-alpha in HEKEA cells (beta-galactosidase complementation). The format is cell-based, human. Conditions: HEKEA_HIF1-alphaPLBL cells, 6 hours under normoxia, luminescence; molar concentration that produces 50% of the maximum response of this same compound. From the text:
Furthermore, a subject of the invention is also a uniform test for the direct measurement by beta-galactosidase complementation of the amount of HIF1-alpha protein in the nucleus of cells, preferably HEK cells, after treating the said cells with one or more test compounds, which consists in: • (a) inoculating, preferably in 384-well plates, the said cells in a suitable culture medium, preferably 1% foetal calf serum (abbreviated as FCS); • (b) adding the test compound(s) at a suitable concentration in a suitable solvent to the cells previously inoculated in the said culture medium; preferably the test compounds are diluted in 0.1% FCS; • (c) incubating the said cells thus prepared in an indicator at about 37° C., advantageously for about 6 hours; • (d) lysing the cells with a lysis buffer containing a chemiluminescent substrate for beta-galactosidase; • (e) incubating in the absence of light, before reading and measuring the luminescence, which is a function of the beta-galactosidase activity.
The test is a cell test based on the principle of enzyme complementation, the enzyme used herein being beta-galactosidase. HEKEA cells are HEK cells stably expressing, and restricted in their nucleus, mutant beta-galactosidase (omega fragment, also known as EA) (line sold by DiscoverX). This construct makes it possible to obtain beta-galactosidase activity only when the protein comprising the Prolabel complementation fragment has migrated into the nucleus.
The protein of interest comprising the Prolabel fragment is in this case an HIF1-alpha or HIF1-alpha mutated at the two prolines 402 and 564 replaced with alanines, is C-terminal fused via molecular biology (DiscoverX vector sold by Clontech) with the small complementation peptide fragment (Prolabel or ED, about 4 kDa). The vector coding for the chimeric protein HIF1-alpha_Prolabel is then transfected into HEKEA cells to obtain stable clones (HEKEA_HIF1-alphaPLBL).
The amount of C-terminal Prolabel-“labelled” HIF1-alpha protein obtained after treating the cells to hypoxia or compounds that are potentially HIF activators is measured by adding to the cells a lysis buffer containing a chemiluminescent substrate for beta-galactosidase.
The measurement of the beta-galactosidase activity will be proportional to the amount of Prolabel and thus of HIF1-alpha that has migrated into the nucleus of the cells.
1.3.1 Experiment Plan • 1) Inoculation of the cells on D0 • 2) Adherence for 24 hours under normoxia • 3) Preparation and addition of the products (Biomek 2000 and FX) on D+1 • 4) Incubation under normoxia for 6 hours • 5) Reading of the plates (by luminescence)
The cells are inoculated with Multidrop in white, opaque-bottomed 384-well plates (Greiner ref 3704), in 30 μl of culture medium (1% FCS) a 10000 cells/well (cell plate).
The test products are prepared at 3×10^−2 M in 100% DMSO and then diluted to 3×10^−4 M in medium containing 0.1% FCS (10 μl in 990 μl of MEM). They are then deposited by hand into column 12 of a round-bottomed 96-well plate (200 μl of each compound) known as the dilution plate (dl). The complete DL plate of 3×10^−4 M to 10^−9 M is then prepared with Biomek 2000 (programme: range of 10 points in series). For the references and controls, 100 μl of DMEM containing 0.1% FCS are added to column 1, 100 μl of Deferoxamine 10^−3M to column 2, wells A B C D and 100 μl of Deferoxamine 5×10^−3 M to column 2, wells E F G H.
3.3 μL are taken from the DL plate by pipetting with a Biomek FX 96 and placed in horizontal duplicate (columns 1 to 24) in each 384-well cell plate (HEKEA_HIF1-alphaPLBL cell plate).
The cells are then placed for 6 hours in an incubator at 37° C. (ambient O2, 6% CO2).
The kit used is the Prolabel chemiluminescent kit (Ref 93-0001 DiscoverX). […]

The molecule `CCN(c1ccccc1)S(=O)(=O)c1ccc(-n2[nH]c3c(c2=O)CN(C(=O)OC(C)(C)C)CC3)nc1` [Compound 28, tert-butyl 2-[5-[ethyl(phenyl)sulfamoyl]pyridin-2-yl]-3-oxo-1,2,3,4,6,7-hexahydro-5H-pyrazolo[4,3-c]pyridine-5-carboxylate] came in with a melting point of 192 °C. This molecule showed an EC50 in the data set on VEGF of 1000 nM. The molecule also yielded an EC50 in the data set with EPO of 1000 nM. This molecule had an EC50 in the data set with HIF1-alpha of 1.6 µM.

Take `CCN(c1ccccc1)S(=O)(=O)c1ccc(-n2[nH]c3c(c2=O)COCC3)nc1` [Compound 25, N-ethyl-6-(3-oxo-1,4,6,7-tetrahydropyrano[4,3-c]pyrazol-2(3H)-yl)-N-phenylpyridine-3-sulfonamide]: the melting point was 164 °C. Besides, the EC50 in the data set with VEGF is 2500 nM. Besides, the EC50 with EPO was 2400 nM. In the data set with HIF1-alpha, this molecule yielded an EC50 of 3.3 µM.

`O=c1c2c([nH]n1-c1ccc(S(=O)(=O)NCc3ccco3)cn1)CSC2` [Compound 19, N-(furan-2-ylmethyl)-6-(3-oxo-4,6-dihydro-1H-thieno[3,4-c]pyrazol-2(3H)-yl)pyridine-3-sulfonamide] returned a melting point of 238 °C. The same molecule yielded an EC50 in the data set on VEGF of 2400 nM. In the data set on EPO, this molecule yielded an EC50 of 2400 nM. In addition, in the data set on HIF1-alpha, the midpoint of the response, the EC50, lay at 5.5 µM.

`CCN(c1ccccc1)S(=O)(=O)c1ccc(-n2[nH]c3c(c2=O)SCCC3)nc1` [Compound 24, N-ethyl-6-(3-oxo-3,5,6,7-tetrahydrothiopyrano[3,2-c]pyrazol-2(1H)-yl)-N-phenylpyridine-3-sulfonamide] returned a melting point of 198 °C. The EC50 in the data set with VEGF worked out at 500 nM. For the same molecule, it took 500 nM to reach a half-maximal effect in the data set with EPO (EC50). This molecule also registered a concentration giving a half-maximal response (EC50) in the data set on HIF1-alpha of 3 µM.

`O=c1c2c([nH]n1-c1ccc(S(=O)(=O)N3CCCC3)cn1)CSC2` [Compound 15, 2-[5-(pyrrolidin-1-ylsulfonyl)pyridin-2-yl]-1,2,4,6-tetrahydro-3H-thieno[3,4-c]pyrazol-3-one] yielded a melting point of 152 °C. This molecule also gave an EC50 with VEGF of 3000 nM. The molecule further returned an EC50 in the data set with EPO of 2800 nM. For the same molecule, a half-maximal effect in the data set on HIF1-alpha (EC50) was put at 16 µM.

These data come from patent US8697731B2, “Derivatives of 2-pyridin-2-yl-pyrazol-3(2H)-one, preparation and therapeutic use thereof” (Sanofi, priority 2008, dated 2014).
